Laboratory results as given in patent publication US7989471B2, “Macrocyclic inhibitors of hepatitis C virus” (Tibotec Pharmaceuticals Ltd., priority 2005, dated 2011).

Tests used:
[1] = system: HCV replicons (NS3-NS5B regions of HCV type Ib) in Huh-7 luc/neo cells; assay: HCV replicon assay (Huh-Luc luciferase reporter); assay type: cell-based; conditions: Hepatitis C virus, Huh-7, 72 h; Huh-Luc replicon cells, three days incubation, luciferase activity; read-out: EC50
Protocol: The in vitro antiviral activity against HCV of the compounds of formula (I) was tested in a cellular HCV replicon system based on Lohmann et al. (1999) Science 285:110-113, with the further modifications described by Krieger et al. (2001) Journal of Virology 75: 4614-4624, which is further exemplified in the examples section. This model, while not a complete infection model for HCV, is widely accepted as the most robust and efficient model of autonomous HCV RNA replication currently available. […] It will be appreciated that it is important to distinguish between compounds that specifically interfere with HCV functions from those that exert cytotoxic or cytostatic effects in the HCV replicon model, and as a consequence cause a decrease in HCV RNA or linked reporter enzyme concentration. Assays are known in the field for the evaluation of cellular cytotoxicity based for example on the activity of mitochondrial enzymes using fluorogenic redox dyes such as resazurin. Furthermore, cellular counter screens exist for the evaluation of non-selective inhibition of linked reporter gene activity, such as firefly luciferase. Appropriate cell types can be equipped by stable transfection with a luciferase reporter gene whose expression is dependent on a constitutively active gene promoter, and such cells can be used as a counter-screen to eliminate non-selective inhibitors.
The compounds of formula (I) were examined for activity in the inhibition of HCV RNA replication in a cellular assay. […] The cellular assay was based on a bicistronic expression construct, as described by Lohmann et al. (1999) Science vol. 285 pp. 110-113 with modifications described by Krieger et al. (2001) Journal of Virology 75: 4614-4624, in a multi-target screening strategy. In essence, the method was as follows.
The assay utilized the stably transfected cell line Huh-7 luc/neo (hereafter referred to as Huh-Luc). This cell line harbors an RNA encoding a bicistronic expression construct comprising the wild type NS3-NS5B regions of HCV type Ib translated from an Internal Ribosome Entry Site (IRES) from encephalomyocarditis virus (EMCV), preceded by a reporter portion (FfL-luciferase), and a selectable marker portion (neo^R, neomycine phosphotransferase). The construct is bordered by 5′ and 3′ NTRs (non-translated regions) from HCV type Ib. Continued culture of the replicon cells in the presence of G418 (neo^R) is dependent on the replication of the HCV RNA. The stably transfected replicon cells that express HCV RNA, which replicates autonomously and to high levels, encoding inter alia luciferase, are used for screening the antiviral compounds.
The replicon cells were plated in 384 well plates in the presence of the test and control compounds which were added in various concentrations. Following an incubation of three days, HCV replication was measured by assaying luciferase activity (using standard luciferase assay substrates and reagents and a Perkin Elmer ViewLux™ ultraHTS microplate imager). Replicon cells in the control cultures have high luciferase expression in the absence of any inhibitor. The inhibitory activity of the compound on luciferase activity was monitored on the Huh-Luc cells, enabling a dose-response curve for each test compound.

[2] = In vitro metabolic blocking by ritonavir in human liver microsomes; assay type: in vitro ADME; conditions: 3 μM test compound, human liver microsomes 1 mg/ml, 37° C., % of initial concentration
Protocol: Compound nr 11 of Table 1 was tested in a metabolic blocking experiment using 3 μM test compound together with 10 μM ritonavir acting as booster.
The test compound and ritonavir were added to human liver microsomes (protein concentration 1 mg/ml) suspended in potassium phosphate buffer (pH=7.4), to get final reaction mixture concentrations of 3 μM test compound and 10 μM ritonavir. In the non-boosted parallel reactions, ritonavir was not added. Boiled human liver microsomes were used for blank experiments. After addition (in a 1:3 ratio) of a cofactor mixture consisting of β-nicotinamide adenine dinucleotide phosphate (β-NADP, 0.5 mg/ml, 653.2 μM), D-Glucose-6-phosphate (2 mg/ml, 7.1 mM), Glucose-6-phosphate dehydrogenase (1.5 U/ml) in 2% NaHCO3, the reaction mixture was incubated at 37° C. for 30 or 120 minutes after which the reaction was stopped by increasing the temperature to 95° C. Test compound concentrations were determined using HPLC-MS.
Values are percentages of the test compound detected after the indicated incubation times as compared to the initial test compound concentration. Each value is the mean of the results of two independent experiments.

Structure (SMILES)	EC50 [1] [nM]	also measured
COc1ccc2c(O[C@@H]3C[C@H]4C(=O)N[C@]5(C(=O)NS(=O)(=O)C6CC6)C[C@H]5/C=C\CCCCCCC(=O)N4C3)cc(-c3nc(C(C)C)cs3)nc2c1 [Compound 11, N-[[18-[2-[4-(isopropyl)thiazol-2-yl]-7-methoxyquinolin-4-yloxy]-2,15-dioxo-3,16-diazatricyclo[14.3.0.0^4,6]nonadec-7-en-4-yl]carbonyl](cyclopropyl)sulfonamide]	17	% Detected Compound ([2]; 30′ incubation, No Booster): 28%; % Detected Compound ([2]; 30′ incubation, with 10 μM ritonavir): 79%; % Detected Compound ([2]; 120′ incubation, No Booster): 0%; % Detected Compound ([2]; 120′ incubation, with 10 μM ritonavir): 91%
COc1ccc2c(O[C@@H]3C[C@H]4C(=O)N[C@]5(C(=O)O)C[C@H]5/C=C\CCCCCC(=O)N4C3)cc(-c3nc(C(C)C)cs3)nc2c1C [Compound 58, 17-[2-(4-isopropylthiazol-2-yl)-7-methoxy-8-methylquinolin-4-yloxy]-2,14-dioxo-3,15-diazatricyclo[13.3.0.0^4,6]octadec-7-ene-4-carboxylic acid]	1600	–
COc1ccc2c(O[C@@H]3C[C@H]4C(=O)N[C@]5(C(=O)NS(=O)(=O)C6CC6)C[C@H]5/C=C\CCCCCC(=O)N4C3)cc(-c3nc(C(C)C)cs3)nc2c1C [Compound 59, N-[17-[2-(4-isopropylthiazol-2-yl)-7-methoxy-8-methylquinolin-4-yloxy]-2,14-dioxo-3,15-diazatricyclo[13.3.0.0^4,6]octadec-7-ene-4-carbonyl]-(cyclopropyl)sulfonamide]	3	–
COc1ccc2c(O[C@@H]3C[C@H]4C(=O)N[C@]5(C(=O)NS(=O)(=O)C6(C)CC6)C[C@H]5/C=C\CCCCCC(=O)N4C3)cc(-c3nc(C(C)C)cs3)nc2c1C [Compound 60, N-[17-[2-(4-isopropylthiazol-2-yl)-7-methoxy-8-methylquinolin-4-yloxy]-2,14-dioxo-3,15-diazatricyclo[13.3.0.0^4,6]octadec-7-ene-4-carbonyl]-(1-methylcyclopropyl)sulfonamide]	14	–
COc1ccc2c(O[C@@H]3C[C@H]4C(=O)N[C@]5(C(=O)NS(=O)(=O)C6(C)CC6)C[C@H]5/C=C\CCCCCC(=O)N4C3)cc(-c3nc(C(C)C)cs3)nc2c1Cl [Compound 61, N-[17-[8-chloro-2-(4-isopropylthiazol-2-yl)-7-methoxyquinolin-4-yloxy]-2,14-dioxo-3,15-diazatricyclo[13.3.0.0^4,6]octadec-7-ene-4-carbonyl]-(1-methylcyclopropyl)sulfonamide]	1	–
COc1ccc2c(O[C@@H]3C[C@H]4C(=O)N[C@]5(C(=O)NS(=O)(=O)C6CC6)C[C@H]5/C=C\CCCCCC(=O)N4C3)cc(-c3nc(C(C)C)cs3)nc2c1 [Compound 63, N-[17-[2-(4-isopropylthiazol-2-yl)-7-methoxyquinolin-4-yloxy]-2,14-dioxo-3,15-diazatricyclo[13.3.0.0^4,6]octadec-7-ene-4-carbonyl]-(cyclopropyl)sulfonamide]	24	–
